Measured values from patent publication US20230338307A1, “PROPHYLACTIC AGENT, AMELIORATING AGENT, AND THERAPEUTIC AGENT FOR DRY EYE” (TSUBOTA LABORATORY, INC., priority 2020, published 2023).

Legend:
dry eye model [1] = experiment: Fluorescein staining score, 0.2% benzalkonium chloride dry eye model, Comparative Study 2 (Example 5); format: in vivo, mice; details: two days after start, compared with control; 0.03% apocynin, 0.5% (w/v) hyaluronic acid or 3% diquafosol sodium twice a day; FIG. 11A
Excerpt: After acclimating male C57BL6 mice (7 weeks old) to the experimental environment, those with almost uniform weight values and no eye abnormalities were divided into the following groups (n=3 to 4). • 7 weeks old/normal (non-dry eye group) • 7 weeks old/dry eye model+control (solvent eye drop) group • 7 weeks old/dry eye model+0.003% (w/v) apocynin eye drop group • 7 weeks old/dry eye model+0.03% (w/v) apocynin eye drop group • 7 weeks old/dry eye model+3% diquafosol sodium eye drop group • 7 weeks old/dry eye model+0.5% (w/v) hyaluronic acid eye drop group A dry eye model was created by instilling 3 μL of the 0.2% benzalkonium chloride solution into each of both eyes twice a day for 8 days. Then, the control group received PBS alone, and the test group received 0.003% (w/v), 0.03% (w/v) apocynin and 0.5% (w/v) hyaluronic acid in PBS. The 3% diquafosol sodium eye drop was instilled into each of both eyes at 3 μL, twice a day for 9 days. In Example 5, 1, 2, 5, and 9 days after the start of instillation of the comparative test drug, 1 μL of 0.1% sodium fluorescein solution was instilled into each of both eyes. Fluorescein-stained images were observed under a blue filter using a slit lamp (Kowa Co., Ltd., SL-17), and the degree of corneal epithelial damage was scored.

[2] = reported for dry eye treatment; cited from earlier work
dry eye model [3] = experiment: Fluorescein staining score, benzalkonium chloride dry eye model, Comparative Study 1 (Example 4); format: in vivo, mice; details: 3 days after start of instillation, compared to control; 0.1% (w/v) apocynin or 0.5% (w/v) hyaluronic acid twice a day; FIG. 9A
Experimental: After acclimating male C57BL6 mice (7 weeks old) to the experimental environment, those with almost uniform weight values and no eye abnormalities were divided into the following groups (n=4). • 7 weeks old/normal (non-dry eye group) • 7 weeks old/dry eye model+control (solvent eye drop) group • 7 weeks old/dry eye model+0.1% (w/v) apocynin eye drop group • 7 weeks old/dry eye model+0.5% (w/v) hyaluronic acid eye drop group A dry eye model was prepared by instilling the benzalkonium chloride solution at 3 μL each eye, twice a day for 8 days. After that, the control group received the 0.5% methylcellulose solution alone, and the test group received 0.1% (w/v) apocynin or 0.5% (w/v) hyaluronic acid suspended in the 0.5% methylcellulose solution twice a day for 15 days at 3 μL for each of both eyes. In Example 4, 1, 3, 6, 8, and 15 days after the start of instillation of the comparative test drug, 1 μL of the 0.1% fluorescein sodium solution was instilled into each of both eyes. Fluorescein-stained images were observed under a blue filter using a slit lamp (Kowa Co., Ltd., SL-17), and the degree of corneal epithelial damage was scored.

## O=c1ccn([C@@H]2O[C@H](COP(=O)(O)OP(=O)(O)OP(=O)(O)OP(=O)(O)OC[C@H]3O[C@@H](n4ccc(=O)[nH]c4=O)[C@H](O)[C@@H]3O)[C@@H](O)[C@H]2O)c(=O)[nH]1 [diquafosol sodium, reference compound]
Dry eye model [1]
  fluorescein staining score (corneal epithelial damage): no effect was observed
[2]
  side effect specific to ingredients: causes ocular discharge and eye pain

## O=C(NC(Cc1cc(=O)[nH]c2ccccc12)C(=O)O)c1ccc(Cl)cc1 (centres unmarked) [rebamipide]
[2]
  side effect specific to ingredients: causes dysgeusia

## hyaluronic acid [reference compound]
Dry eye model [3]
  fluorescein staining score (corneal damage): no effect was observed
Dry eye model [1]
  fluorescein staining score (corneal epithelial damage): no effect was observed
